Experimental data: US20240217966A1, “PHARMACEUTICAL COMPOSITION CONTAINING GLP-1 RECEPTOR AGONIST HAVING FUSED RING” (Shionogi & Co., Ltd., priority 2021, published 2024)
pEC50: −log10 of the molar value. Where two headings read alike, the source gives them in different places.

Target: T1, Human GLP-1 receptor (Homo sapiens, UniProt P43220)
T1 construct: expressed in transfected cells
Experiment: Measurement of GLP-1 receptor agonist activity (cAMP assay)
Type: cell-based
Method in brief: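 Agonism measured as cAMP accumulation by time-resolved FRET immunoassay in CHO-K1 cells stably expressing human GLP-1 receptor. Cells treated for 1 h at 37 °C with compound and forskolin (400 μM stock), in buffer containing the PDE inhibitors IBMX (0.1 mM) and RO20-1724 (0.2 mM).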

[1] = CHO-K1, hGLP-1R/CHO-K1 cells, cAMP, 100% = human GLP-1 (7-36) at 2 nM, 0% = DMSO only, read-out: Emax(%)
[2] = hGLP-1R/CHO-K1 cells, cAMP increase, 37° C. 1 hour
[3] = CHO-K1, maximum effect, cAMP increase in GLP-1 R/CHO-K1 cells, 2 nM human GLP-1 (7-36) = 100%, DMSO only = 0%, read-out: Emax
[4] = cAMP increase in GLP-1 R/CHO-K1 cells, 2 nM human GLP-1 (7-36) = 100%, DMSO only = 0%

T1 sequence (P43220 24-463): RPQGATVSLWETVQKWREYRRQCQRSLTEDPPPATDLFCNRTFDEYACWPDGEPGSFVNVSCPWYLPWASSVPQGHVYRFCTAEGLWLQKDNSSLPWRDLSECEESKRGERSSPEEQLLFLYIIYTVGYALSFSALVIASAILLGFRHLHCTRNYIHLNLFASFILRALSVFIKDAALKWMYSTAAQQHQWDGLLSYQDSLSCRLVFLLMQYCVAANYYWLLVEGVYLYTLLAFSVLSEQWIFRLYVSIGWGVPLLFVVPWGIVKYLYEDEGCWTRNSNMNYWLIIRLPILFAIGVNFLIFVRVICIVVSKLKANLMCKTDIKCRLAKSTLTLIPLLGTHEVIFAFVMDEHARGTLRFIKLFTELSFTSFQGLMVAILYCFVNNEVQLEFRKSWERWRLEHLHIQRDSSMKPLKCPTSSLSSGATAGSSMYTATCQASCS

| Emax [1] | pEC50 [2] | Emax [3] | pEC50 [4] | SMILES |
| --- | --- | --- | --- | --- |
| 112% | 7.52 |  |  | O=C(O)c1ccc2nc(CN3CCc4cc(C(F)(F)F)c(OCc5ccc(Cl)c(F)c5F)cc4C3)n(C[C@@H]3CCO3)c2c1 [Compound I-059] |
|  |  | 107% | 10.34 | COc1cc(C(=O)O)cc2c1nc(CN1CCc3cc(C(F)(F)F)c(OCc4ccc(Cl)cc4F)nc3C1)n2C[C@@H]1CCO1 [Compound I-390] |
| 131% | 7.97 |  |  | C[C@H]1c2cc(OCc3ccc(C4CC4)cc3)c(C(F)(F)F)cc2CCN1Cc1nc2ccc(C(=O)O)cc2n1C[C@@H]1CCO1 [Compound I-163] |
| 94% | 7.79 |  |  | O=C(O)c1ccc2nc(CN3CCc4cc(C(F)(F)F)c(OCc5c(F)cccc5Cl)cc4C3)n(C[C@@H]3CCO3)c2c1 [Compound I-158] |
|  |  | 109% | 10.22 | C[C@H]1c2nc(OCc3cc(F)c(Cl)cc3F)c(C(F)(F)F)cc2CCN1Cc1nc2ccc(C(=O)O)c(F)c2n1C[C@@H]1CCO1 [Compound I-245] |
| 84.3% |  |  |  | N#Cc1cc2c(cc1OCc1ccc(Cl)cc1F)CN(Cc1nc3ccc(C(=O)O)cc3n1C[C@@H]1CCO1)CC2 [Compound I-008] |
|  |  | 91% | 9.38 | COc1cc(Cl)ccc1COc1cc2c(cc1Cl)CCN(Cc1nc3ccc(C(=O)O)cc3n1C[C@@H]1CCO1)[C@H]2C [Compound I-310] |
| 112% | 8.35 |  |  | O=C(O)c1ccc2nc(CN3CCc4cc(C(F)(F)F)c(OCc5ccc(Cl)cc5F)cc4C3CF)n(C[C@@H]3CCO3)c2c1 (mixture of isomers) [Compound I-133] |
| 139% | 9.51 |  |  | C[C@H]1c2cc(OCc3c(F)cc(Cl)cc3F)c(C(F)(F)F)cc2CCN1Cc1nc2ccc(C(=O)O)c(F)c2n1C[C@@H]1CCO1 [Compound I-130] |
|  |  | 115% | 10.13 | C[C@H]1c2nc(OCc3ccc(Cl)cn3)c(C(F)(F)F)cc2CCN1Cc1nc2c(F)cc(C(=O)O)cc2n1C[C@@H]1CCO1 [Compound I-365] |
|  |  | 107% | 8.40 | O=C(O)c1ccc2nc(CN3CCc4cc(C(F)(F)F)c(OCc5ccc(F)cc5)nc4C3)n(C[C@@H]3CCO3)c2c1 [Compound I-272] |
| 104% | 9.02 |  |  | O=C(O)c1ccc2nc(CN3CCc4cc(C(F)(F)F)c(OCc5ccc(Cl)cc5F)cc4C3)n(C[C@@H]3CCO3)c2c1F [Compound I-054] |
| 103% | 8.63 |  |  | O=C(O)c1ccc2nc(CN3CCc4cc(C(F)(F)F)c(OCc5ccc(OC(F)F)cc5)cc4C3)n(C[C@@H]3CCO3)c2c1 [Compound I-082] |
|  |  | 134% | 9.98 | C[C@H]1c2nc(OCc3c(F)cc(Cl)cc3F)c(C(F)(F)F)cc2CCN1Cc1nc2ccc(C(=O)O)cc2n1C[C@@H]1CCO1 [Compound I-259] |
| 130% | 8.48 |  |  | O=C(O)c1ccc2nc(CN3CCc4cc(C(F)(F)F)c(OCc5ccc(Cl)cn5)cc4C3)n(C[C@@H]3CCO3)c2c1 [Compound I-067] |
| 111% | 8.94 |  |  | O=C(O)c1ccc2nc(Cc3cc(F)c4nc(C(F)(F)F)c(OCc5ccc(Cl)cc5F)nc4c3)n(C[C@@H]3CCO3)c2c1 [Compound I-127] |
| 128% | 7.01 |  |  | O=C(O)c1ccc2nc(CN3CCc4cc(C(F)(F)F)c(OCc5ccc(Cl)cc5F)cc4C3)n(CCOC(F)F)c2c1 [Compound I-063] |
| 119% | 8.93 |  |  | O=C(O)c1cc(F)c2nc(CN3CCc4cc(C(F)(F)F)c(OCc5ccc(Cl)cc5F)cc4C3)n(C[C@@H]3CCO3)c2c1F [Compound I-134] |
|  |  | 115% | 10.04 | Cc1ccc(COc2nc3c(cc2C(F)(F)F)CCN(Cc2nc4c(F)cc(C(=O)O)cc4n2C[C@@H]2CCO2)[C@H]3C)cc1 [Compound I-363] |
| 127% | 7.90 |  |  | Cn1nnc2cc(COc3cc4c(cc3C(F)(F)F)CCN(Cc3nc5ccc(C(=O)O)cc5n3C[C@@H]3CCO3)C4)ccc21 [Compound I-072] |
| 146% | 7.03 |  |  | CC(c1nc2ccc(C(=O)O)cc2n1C[C@@H]1CCO1)N1CCc2cc(C(F)(F)F)c(OCc3ccc(Cl)cc3F)cc2C1 (mixture of isomers) [Compound I-032] |
|  |  | 97.7% | 8.59 | Cc1ccc(COc2cc3c(cc2Cl)CCN(Cc2nc4ccc(C(=O)O)c(F)c4n2C[C@@H]2CCO2)[C@H]3C)cc1 [Compound I-317] |
|  |  | 111% | 8.39 | O=C(O)c1ccc2nc(CN3CCc4cc(C(F)(F)F)c(OCc5ccc(C6CC6)cc5)nc4C3)n(C[C@@H]3CCO3)c2c1 [Compound I-266] |
|  |  | 119% | 9.41 | C[C@H]1c2nc(OCc3ccc(OC(F)F)cc3F)c(C(F)(F)F)cc2CCN1Cc1nc2ccc(C(=O)O)cc2n1C[C@@H]1CCO1 [Compound I-256] |
| 103% | 8.06 |  |  | O=C(O)c1ccc2nc(CN3CCc4cc(C(F)(F)F)c(OCc5c(F)cc(C(F)F)cc5F)cc4C3)n(C[C@@H]3CCO3)c2c1 [Compound I-216] |

| Emax [1] | pEC50 [2] | Emax [3] | pEC50 [4] | SMILES |
| --- | --- | --- | --- | --- |
| 128% | 9.07 |  |  | C[C@H]1c2cc(OCc3ccc(OC(F)F)cc3F)c(C(F)(F)F)cc2CCN1Cc1nc2ccc(C(=O)O)c(F)c2n1C[C@@H]1CCO1 [Compound I-199] |
| 75.3% | 7.36 |  |  | Cc1cc2c(cc1OCc1ccc(Cl)cc1F)C(=O)N(Cc1nc3ccc(C(=O)O)cc3n1C[C@@H]1CCO1)CC2 [Compound I-004] |
| 81.3% | 7.13 |  |  | Cc1cc2c(cc1OCc1ccc(C(F)(F)F)cn1)CN(Cc1nc3ccc(C(=O)O)cc3n1C[C@@H]1CCO1)CC2 [Compound I-015] |
|  |  | 119% | 9.99 | C[C@H]1c2nc(OCc3ccc(Cl)cn3)c(C(F)(F)F)cc2CCN1Cc1nc2ccc(C(=O)O)c(F)c2n1C[C@@H]1CCO1 [Compound I-355] |
| 109% | 10.08 |  |  | COc1cc(Cl)ccc1COc1cc2c(cc1C(F)(F)F)CCN(Cc1nc3c(F)cc(C(=O)O)cc3n1C[C@@H]1CCO1)[C@H]2C [Compound I-208] |
| 120% | 8.91 |  |  | C[C@H]1c2cc(OCc3ccc(C#N)cc3F)c(C(F)(F)F)cc2CCN1Cc1nc2ccc(C(=O)O)cc2n1C[C@@H]1CCO1 [Compound I-170] |
| 103% | 8.17 |  |  | O=C(O)c1ccc2nc(CN3CCc4cc(C(F)(F)F)c(OCc5ccc(F)cc5)cc4C3)n(C[C@@H]3CCO3)c2c1 [Compound I-079] |
|  |  | 120% | 10.06 | C[C@H]1c2nc(OCc3c(F)cc(Cl)cc3F)c(C(F)(F)F)cc2CCN1Cc1nc2ccc(C(=O)O)nc2n1C[C@@H]1CCO1 [Compound I-291] |
| 128% | 8.93 |  |  | C[C@H]1c2cc(OCc3ccc(F)cc3F)c(C(F)(F)F)cc2CCN1Cc1nc2ccc(C(=O)O)c(F)c2n1C[C@@H]1CCO1 [Compound I-198] |
| 147% | 7.42 |  |  | O=C(O)c1ccc2nc(CN3CCc4cc(C(F)(F)F)c(OCc5ccc(Cl)cc5F)cc4C3)n(C[C@@H]3CCCO3)c2c1 [Compound I-040] |
| 113% | 8.25 |  |  | N#Cc1ccc(COc2cc3c(cc2C(F)(F)F)CCN(Cc2nc4ccc(C(=O)O)cc4n2C[C@@H]2CCO2)C3)cc1 [Compound I-103] |
|  |  | 129% | 10.02 | COc1cc(C(=O)O)cc2c1nc(CN1CCc3cc(Cl)c(OCc4ccc(Cl)cc4Cl)cc3[C@@H]1C)n2C[C@@H]1CCO1 [Compound I-345] |
|  |  | 120% | 10.87 | COc1cc(C(=O)O)cc2c1nc(CN1CCc3cc(C(F)(F)F)c(OCc4ccc(Cl)cc4F)nc3[C@@H]1C)n2C[C@@H]1CCO1 [Compound I-274] |
|  |  | 122% | 10.31 | C[C@H]1c2nc(OCc3c(F)cc(F)cc3F)c(C(F)(F)F)cc2CCN1Cc1nc2c(F)cc(C(=O)O)cc2n1C[C@@H]1CCO1 [Compound I-371] |
|  |  | 100% | 8.97 | C[C@H]1c2cc(OCc3ccc(OC(F)F)cc3F)c(Cl)cc2CCN1Cc1nc2ccc(C(=O)O)c(F)c2n1C[C@@H]1CCO1 [Compound I-327] |
| 116% | 9.43 |  |  | COc1cc(Cl)ccc1COc1cc2c(cc1C(F)(F)F)CCN(Cc1nc3ccc(C(=O)O)nc3n1C[C@@H]1CCO1)[C@H]2C [Compound I-181] |
| 98% | 8.32 |  |  | C[C@H]1c2cc(OCc3ccc(OC(F)F)cc3F)c(C(F)(F)F)cc2CCN1Cc1nc2ccc(C(=O)O)nc2n1C[C@@H]1CCO1 [Compound I-184] |
| 105% | 8.78 |  |  | COc1ccc(COc2cc3c(cc2C(F)(F)F)CCN(Cc2nc4c(F)cc(C(=O)O)cc4n2C[C@@H]2CCO2)[C@H]3C)cc1 [Compound I-202] |
|  |  | 106% | 9.44 | COc1cc(C(=O)O)cc2c1nc(CN1CCc3cc(C(F)(F)F)c(OCc4c(F)cc(F)cc4F)cc3[C@@H]1C)n2C[C@@H]1CCO1 [Compound I-238] |
| 91% | 7.56 |  |  | O=C(O)c1ccc2nc(CN3CCc4cc(C(F)(F)F)c(OCc5ccc(C(F)(F)F)cn5)cc4C3)n(C[C@@H]3CCO3)c2c1 [Compound I-135] |
|  |  | 107% | 9.61 | C[C@H]1c2nc(OCc3ccc(Cl)cc3F)c(C(F)(F)F)cc2CCN1Cc1nc2ccc(C(=O)O)nc2n1C[C@@H]1CCO1 [Compound I-275] |
|  |  | 111% | 10.20 | COc1cc(Cl)ccc1COc1cc2c(cc1Cl)CCN(Cc1nc3c(OC)cc(C(=O)O)cc3n1C[C@@H]1CCO1)[C@H]2C [Compound I-343] |
| 113% | 8.65 |  |  | O=C(O)c1ccc2nc(CN3CCc4cc(C(F)(F)F)c(OCc5c(F)cc(Cl)cc5F)cc4C3)n(C[C@@H]3CCO3)c2c1 [Compound I-101] |
| 130% | 9.19 |  |  | C[C@H]1c2cc(OCc3ccc(Cl)cn3)c(C(F)(F)F)cc2CCN1Cc1nc2ccc(C(=O)O)c(F)c2n1C[C@@H]1CCO1 [Compound I-191] |
